# Laboratory results: US10329260B2, “Human plasma kallikrein inhibitors” (BioCryst Pharmaceuticals, Inc., priority 2014, dated 2019)
# Target: human plasma kallikrein (Homo sapiens (Human), UniProt P03952)
# Experiment: Plasma Kallikrein Activity Assay
# Assay type: biochemical
# Conditions: 2 nM kallikrein, 80 μM chromogenic substrate S2302, 30° C., pH 7.8; Ki by Cheng-Prusoff equation
# Procedure: Plasma Kallikrein Activity Assay.
# The effect of compounds of the invention on human plasma kallikrein activity was determined using the chromogenic substrates (DiaPharma Group, Inc., West Chester, Ohio, USA). In these experiments, 2 nM kallikrein (Enzyme Research Laboratories, South Bend, Ind., USA) was incubated with 80 μM S2302 (H-D-Pro-Phe-Arg-p-nitroaniline) in the absence or presence of increasing concentrations of compounds of the invention in a final volume of 200 μL Tris-HCl buffer (200 mM NaCl; 2.5 mM CaCl2; 50 mM Tris-HCl, pH 7.8).
# Data were analyzed using SigmaPlot software (Systat Software, Inc., San Jose, Calif., USA) (Four Parameter Logistic Curve).
# Sequence of human plasma kallikrein (P03952 whole entry partner, looked up): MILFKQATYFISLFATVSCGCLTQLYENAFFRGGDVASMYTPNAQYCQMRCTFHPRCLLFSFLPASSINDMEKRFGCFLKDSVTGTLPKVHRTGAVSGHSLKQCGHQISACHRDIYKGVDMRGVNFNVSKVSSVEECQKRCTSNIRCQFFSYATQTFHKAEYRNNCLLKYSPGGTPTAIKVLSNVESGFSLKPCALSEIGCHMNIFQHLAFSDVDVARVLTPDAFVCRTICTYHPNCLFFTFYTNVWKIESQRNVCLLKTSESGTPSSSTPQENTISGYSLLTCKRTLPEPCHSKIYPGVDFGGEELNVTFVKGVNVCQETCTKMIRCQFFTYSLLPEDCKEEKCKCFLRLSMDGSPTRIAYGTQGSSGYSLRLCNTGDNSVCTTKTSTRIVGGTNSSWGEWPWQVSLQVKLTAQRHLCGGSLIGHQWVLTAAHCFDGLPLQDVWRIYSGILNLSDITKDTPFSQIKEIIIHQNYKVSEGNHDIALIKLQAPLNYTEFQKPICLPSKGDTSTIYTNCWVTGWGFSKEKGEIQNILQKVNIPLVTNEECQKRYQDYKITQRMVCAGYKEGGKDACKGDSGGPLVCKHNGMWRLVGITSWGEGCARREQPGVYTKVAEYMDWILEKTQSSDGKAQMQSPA
# Sequence of human plasma kallikrein (P03952 whole entry, looked up): as the sequence (P03952 whole entry partner, looked up) above
row,SMILES,Ki [nM]
1,"CN(Cc1cccc(NC(=O)c2cc(C(F)(F)F)nn2-c2cccc(CN)c2)c1)c1ccccc1 [Compound 28f, 1-(3-(aminomethyl)phenyl)-N-(3-((methyl(phenyl)amino)methyl)phenyl)-3-(trifluoromethyl)-1H-pyrazole-5-carboxamide]",> 100
2,"NCc1cccc(-n2nc(C(F)(F)F)cc2C(=O)Nc2cc(Cn3ccnc3)ccc2F)c1 [Compound 30g, N-(5-((1H-imidazol-1-yl)methyl)-2-fluorophenyl)-1-(3-(aminomethyl)phenyl)-3-(trifluoromethyl)-1H-pyrazole-5-carboxamide]",> 100
3,"NCc1cccc(-n2nc(C(F)(F)F)cc2C(=O)Nc2cccc(C(O)c3cccnc3)c2)c1 (centres unmarked) [Compound 31f, 1-(3-(aminomethyl)phenyl)-N-(3-(hydroxy(pyridin-3-yl)methyl)phenyl)-3-(trifluoromethyl)-1H-pyrazole-5-carboxamide]",> 100
4,"CCOC(c1ccccc1)c1ccc(Cl)c(NC(=O)c2cc(C(F)(F)F)nn2-c2cccc(CN)c2)c1 (centres unmarked) [Compound 33e, 1-(3-(aminomethyl)phenyl)-N-(2-chloro-5-(ethoxy(phenyl)methyl)phenyl)-3-(trifluoromethyl)-1H-pyrazole-5-carboxamide]",> 100
5,"NCc1cccc(-n2nc(C(F)(F)F)cc2C(=O)Nc2cc(C(O)c3ccccc3)ccc2Cl)c1 (centres unmarked) [Compound 33f, 1-(3-(aminomethyl)phenyl)-N-(2-chloro-5-(hydroxy(phenyl)methyl)phenyl)-3-(trifluoromethyl)-1H-pyrazole-5-carboxamide]",> 100
6,"NCc1cccc(-n2nc(C(F)(F)F)cc2C(=O)Nc2cc(C(O)c3ccccc3)ccc2F)c1 (centres unmarked) [Compound 34d, 1-(3-(aminomethyl)phenyl)-N-(2-fluoro-5-(hydroxy(phenyl)methyl)phenyl)-3-(trifluoromethyl)-1H-pyrazole-5-carboxamide]",> 100
7,"N#CCC(c1ccccc1)c1cccc(NC(=O)c2cc(C(F)(F)F)nn2-c2cccc(CN)c2)c1 (centres unmarked) [Compound 39e, 1-(3-(aminomethyl)phenyl)-N-(3-(2-cyano-1-phenylethyl)phenyl)-3-(trifluoromethyl)-1H-pyrazole-5-carboxamide]",> 100
8,"NCc1cccc(-n2nc(C(F)(F)F)cc2C(=O)Nc2cccc(C(CC(N)=O)c3ccccc3)c2)c1 (centres unmarked) [Compound 40b, N-(3-(3-amino-3-oxo-1-phenylpropyl)phenyl)-1-(3-(aminomethyl)phenyl)-3-(trifluoromethyl)-1H-pyrazole-5-carboxamide]",> 100
9,"NCc1cccc(-n2nc(C(F)(F)F)cc2C(=O)Nc2ccc(F)c(C(OCC3CC3)c3ccccc3)c2)c1 (centres unmarked) [Compound 76h, 1-(3-(aminomethyl)phenyl)-N-(3-((cyclopropylmethoxy)(phenyl)methyl)-4-fluorophenyl)-3-(trifluoromethyl)-1H-pyrazole-5-carboxamide]",> 100
10,"CC(C)[C@H](N)C(=O)OC(c1ccccc1)c1cccc(NC(=O)c2cc(C(F)(F)F)nn2-c2cccc(CN)c2)c1 (stereo partly drawn) [Compound 81c, (2S)-(3-(1-(3-(aminomethyl)phenyl)-3-(trifluoromethyl)-1H-pyrazole-5-carboxamido)phenyl)(phenyl)methyl 2-amino-3-methylbutanoate]",> 100
11,"NCc1cccc(-n2nc(C(F)(F)F)cc2C(=O)Nc2c(F)cccc2C(O)c2ccccc2)c1 (centres unmarked) [Compound 90f, 1-(3-(aminomethyl)phenyl)-N-(2-fluoro-6-(hydroxy(phenyl)methyl)phenyl)-3-(trifluoromethyl)-1H-pyrazole-5-carboxamide]",> 100
12,"NCc1cccc(-n2nc(C(F)(F)F)cc2C(=O)Nc2cccc(C(CCC3CC3)N3CCOCC3)c2)c1 (centres unmarked) [Compound 93b, 1-(3-(aminomethyl)phenyl)-N-(3-(3-cyclopropyl-1-morpholinopropyl)phenyl)-3-(trifluoromethyl)-1H-pyrazole-5-carboxamide]",> 100
13,"NCc1cccc(-n2nc(C(F)(F)F)cc2C(=O)Nc2cc(F)cc(C(O)c3ccccc3)c2)c1 (centres unmarked) [Compound 97f, 1-(3-(aminomethyl)phenyl)-N-(3-fluoro-5-(hydroxy(phenyl)methyl)phenyl)-3-(trifluoromethyl)-1H-pyrazole-5-carboxamide]",> 100
14,"NCc1cccc(-n2nc(C(F)(F)F)cc2C(=O)Nc2cccc(Cc3ccc(O)cc3)c2)c1 [Compound 136a, 1-(3-(Aminomethyl)phenyl)-N-(3-(4-hydroxybenzyl)phenyl)-3-(trifluoromethyl)-1H-pyrazole-5-carboxamide]",> 100
15,"NCc1cccc(-n2nc(C(F)(F)F)cc2C(=O)Nc2cccc(Cc3cccc(O)c3)c2)c1 [Compound 137b, 1-(3-(aminomethyl)phenyl)-N-(3-(3-hydroxybenzyl)phenyl)-3-(trifluoromethyl)-1H-pyrazole-5-carboxamide]",> 100
16,"NCc1cccc(-n2nc(C(F)(F)F)cc2C(=O)Nc2cccc(C(NCCO)c3ccccc3)c2)c1 (centres unmarked) [Compound 145c, 1-(3-(Aminomethyl)phenyl)-N-(3-((2-hydroxyethylamino)(phenyl)methyl)phenyl)-3-(trifluoromethyl)-1H-pyrazole-5-carboxamide]",> 100
17,"O=C(Nc1cc(C(O)(CCC2CC2)c2ccccn2)ccc1F)c1cc(C(F)(F)F)nn1-c1ccc(Cl)cc1 (centres unmarked) [Compound 157a, 1-(4-chlorophenyl)-N-(5-(3-cyclopropyl-1-hydroxy-1-(pyridin-2-yl)propyl)-2-fluorophenyl)-3-(trifluoromethyl)-1H-pyrazole-5-carboxamide]",> 100
18,"O=C(Nc1cc(C(O)(CCC2CC2)c2ccccn2)ccc1F)c1cc(C(F)(F)F)nn1-c1ccc2cc(Cl)ccc2c1 (centres unmarked) [Compound 158a, 1-(6-chloronaphthalen-2-yl)-N-(5-(3-cyclopropyl-1-hydroxy-1-(pyridin-2-yl)propyl)-2-fluorophenyl)-3-(trifluoromethyl)-1H-pyrazole-5-carboxamide]",> 100
19,"O=C(Nc1cc(C(O)(CCC2CC2)c2ccccn2)ccc1F)c1cc(C(F)(F)F)nn1-c1ccc(Cl)cn1 (centres unmarked) [Compound 159a, 1-(5-chloropyridin-2-yl)-N-(5-(3-cyclopropyl-1-hydroxy-1-(pyridin-2-yl)propyl)-2-fluorophenyl)-3-(trifluoromethyl)-1H-pyrazole-5-carboxamide]",> 100
20,"COc1ccc(-n2nc(C(F)(F)F)cc2C(=O)Nc2cc(C(O)(CCC3CC3)c3ccccn3)ccc2F)cc1 (centres unmarked) [Compound 160a, N-(5-(3-cyclopropyl-1-hydroxy-1-(pyridin-2-yl)propyl)-2-fluorophenyl)-1-(4-methoxyphenyl)-3-(trifluoromethyl)-1H-pyrazole-5-carboxamide]",> 100
21,"NCc1cccc(-n2nc(C(F)(F)F)cc2C(=O)Nc2cc3c(cc2F)CNCC3)c1 [Compound 161e, 1-(3-(aminomethyl)phenyl)-N-(7-fluoro-1,2,3,4-tetrahydroisoquinolin-6-yl)-3-(trifluoromethyl)-1H-pyrazole-5-carboxamide]",> 100
22,"NCc1cccc(-n2nc(C(F)(F)F)cc2C(=O)Nc2ccc3c(c2F)CCNC3)c1 [Compound 162c, 1-(3-(aminomethyl)phenyl)-N-(5-fluoro-1,2,3,4-tetrahydroisoquinolin-6-yl)-3-(trifluoromethyl)-1H-pyrazole-5-carboxamide]",> 100
23,"NCc1cccc(-n2nc(C(F)(F)F)cc2C(=O)Nc2cc3c(cc2F)CCNC3)c1 [Compound 163g, 1-(3-(aminomethyl)phenyl)-N-(6-fluoro-1,2,3,4-tetrahydroisoquinolin-7-yl)-3-(trifluoromethyl)-1H-pyrazole-5-carboxamide]",> 100
